pIC50: −log10 of the molar value. “Also recorded” adds a separate entry of the source. Read-outs that look alike come from different tables or passages of the source.
What was measured:
HUVEC cells [1] = assay: Tube formation assay on Matrigel; assay type: cell-based, human; details: for pIC50: Homo sapiens, HUVEC
Procedure: Matrigel (BD Biosciences) were thawed at 4° C. overnight and each well of the prechilled 24-well plates was coated with 100 μl Matrigel and incubated at 37° C. for 45 minutes. HUVEC cells (4×10^4 cells) were added in 1 ml ECGM with various concentrations of gambogic acid. After 12-16 hours of incubation at 37° C., 5% CO2, endothelial cell tube formation was assessed using an OLYMPUS inverted microscope. Tubular structures were quantified by manual counting of low power fields (25×) and percent inhibition was expressed using untreated wells as 100% (t-test, p<0.001).

FAK = FAK phosphorylation in HUVEC cells (immunoprecipitation, Western blotting); assay type: cell-based, human; details: HUVEC cells with or without VEGF, GA 1-40 nM, 5 minutes
Procedure: (§1) After starvation in ECGM medium without serum overnight, HUVEC cells were washed with 1×PBS twice, followed with incubation in M199 medium. HUVEC cells were then treated with 1 nM of GA and/or 4 nM of VEGF for 5 minutes, then subjected to immunoprecipitation using anti-VEGFR2 antibody. Anti-phosphotyrosine antibody was used for the detection of phosphorylation of the tyrosine residue of VEGFR2. […] Reaction cocktail containing 100 ng of active VEGFR2 was incubated with different concentrations of GA for 5 minutes at room temperature. Substrate peptide cocktail was added to the pre-incubated reaction cocktail/GA compound. After incubation at room temperature for 30 minutes, stop buffer was added to halt the reaction. 25 μl of each reaction was then transferred with 75 μl dH2O per well into a 96-well streptavidin coated plate and incubated at room temperature for 60 minutes. […] The stop solution was added and the plate was detected at 405 nm. […]
(§2) HUVEC cells pretreated with or without 4 nM VEGF for 5 min were treated with or without different concentrations of GA for another 5 minutes. […] Anti-cleaved caspase 3 antibody (Santa Cruz Biotech) was used for detecting cleaved caspase 3 and polyADP ribose polymerase (PARP) cleavage was detected by an anti-PARP p85 fragment (Promega) in apoptosis assays.

C57BL/6 mice = assay: Matrigel plug assay (VEGF dependent angiogenesis in vivo); details: VEGF 4 ng/ml, 7 days
Procedure: Matrigel (0.5 ml/plug) with no VEGF or GA, VEGF (4 ng/ml) but no GA, VEGF (4 ng/ml) and 0.1 μM GA or 0.2 μM GA in liquid form at 4° C., respectively, were injected subcutaneously in the midventral abdominal region of 5-6 week old C57BL/6 mice (five mice for each group). After 7 days, the mice were sacrificed and the plugs were removed. Each concentration had 4-5 Matrigel plugs. The Matrigel plugs were fixed with formalin and embedded with paraffin. The 5 μm sections were stained with H&E staining. The number of erythrocyte-filled blood vessels in the high power microscope field (HPF, 200×) was recorded (plug number=4-5, t-test, p<0.005).

c-Src = c-Src phosphorylation in HUVEC cells (immunoprecipitation, Western blotting); assay type: cell-based, human; details: HUVEC cells with or without VEGF, GA 1-40 nM, 5 minutes
Procedure: as §1, §2

HUVEC cells [2] = assay: Wound migration assay, VEGF dependent; assay type: cell-based, human; details: 10 nM GA, 4 ng/ml VEGF, 24 hours
Procedure: HUVEC cells were allowed to grow to full confluence on six-well plates precoated with 0.1% gelatin. Monolayer cells were wounded by scratching with 1 ml pipette tip and washed three times with 1×PBS. Fresh endothelial cell growth medium (hereinafter, ECGM) was added with or without 4 ng/ml VEGF, which was received from the NIH experimental branch, and supplemented with different concentrations of GA. Images were taken after 24 hours of incubation at 37° C. in a 5% CO2 incubator (hereinafter, 5% CO2) with a Nikon digital camera. For PC3 cell migration, PC3 cells were allowed to grow to full confluence on six-well plates and wounded by scratching with a 1 ml pipette tip and washed three times of 1×PBS. Fresh 1640 medium was added with 4 ng/ml VEGF and different concentrations of GA. After a 24-hour incubation period, images were take with a Leica DM IRB inverted microscope. The migrated cells were quantified by manual counting of high power fields (HPF, 200×) and percent inhibition was expressed using untreated wells as 100% (t-test, p<0.005).

HUVEC cells [3] = assay: Western blotting for cleaved caspase 3 and cleaved PARP (apoptosis); assay type: cell-based, human; details: 100 nM GA
Procedure: HUVEC cells pretreated with or without 4 nM VEGF for 5 min were treated with or without different concentrations of GA for another 5 minutes. 200 μg total protein of the cells of each sample was subjected to immunoprecipitation using anti-c-Src, anti-FAK and anti-AKT antibodies (Santa Cruz Biotech) and further subjected to Western blotting. The pTyr-antibody (Santa Cruz Biotech) was used for detecting c-Src phosphorylation and the pFAK397 antibody (Cell Signaling) was blotted for c-Src-associated FAK phosphorylation at […]. In addition, AKT phosphorylation was examined using a pSer473-AKT antibody (Cell Signaling). Anti-cleaved caspase 3 antibody (Santa Cruz Biotech) was used for detecting cleaved caspase 3 and polyADP ribose polymerase (PARP) cleavage was detected by an anti-PARP p85 fragment (Promega) in apoptosis assays.
Several previous studies described gambogic acid (FIG. 1A) activated apoptosis in cancer cells, which partly answered the molecular mechanism of GA's anticancer characters. […] Whole cell proteins of GA treated HUVECs were analyzed by Western blotting with anticleaved caspase 3 and PARP antibodies. […] To investigate if the apoptotic activation effect of GA is different between endothelial cells and cancer cells, we measured the apoptotic populations of HUVECs and human prostate cancer cell PC3 cells treated with GA by flow cytometry FACS assays. […]

CC(C)=CCC[C@]1(C)C=Cc2c(O)c3c(c(CC=C(C)C)c2O1)O[C@]12C(=C[C@@H]4C[C@H]1C(C)(C)O[C@@]2(C/C=C(/C)C(=O)O)C4=O)C3=O [GA, gambogic acid]
Tube formation ability of HUVECs (HUVEC cells [1]; 100 nM GA): completely inhibited the tube-forming ability; also recorded: completely inhibited the tube formation ability
pIC50 (HUVEC cells [1]; 12-16 hours, read-out: Concentration that inhibited tube formation of HUVEC cells by 50%): ~7.30
pIC50 (HUVEC cells [1]; as printed in the legend of FIG. 3, read-out: Concentration that inhibited 50% tube formation of HUVEC cells): ~7.30
Phosphorylation and activation of FAK (FAK): significantly inhibited the phosphorylation and activation
VEGF dependent angiogenesis in Matrigel plugs (C57BL/6 mice; 0.1 μM GA): inhibited VEGF dependent angiogenesis
VEGF dependent angiogenesis in Matrigel plugs (C57BL/6 mice; 0.2 μM GA): totally abolished angiogenesis
Phosphorylation and activation of c-Src (c-Src): significantly inhibited the phosphorylation and activation
VEGF dependent migration of HUVEC cells (HUVEC cells [2]): inhibits VEGF dependent migration; also recorded: strongly inhibited VEGF dependent migration
Apoptosis by cleaved caspase 3 and cleaved PARP (HUVEC cells [3]): induces apoptosis; also recorded: strongly induced apoptosis

Reference: patent US20090259054A1, “Methods and Compositions for the Treatment of Angiogenesis and Macular Degeneration” (The Texas A&M University System, priority 2008, published 2009)
